The values below come from patent US11964014B2, “Vaccine adjuvants based on TLR receptor ligands” (priority 2019, dated 2024).

Each structure is given as a SMILES string.

The test system of test [1] is primary human peripheral blood mononuclear cells (PBMCs). Kind of test: Cytokine (IFNα, IL-12p70, TNFα) induction in human PBMCs stimulated with TLR agonists. It is filed as cell-based. As to conditions: human PBMC. How it is done:
IFNα and IL-12p70 responses were measured in primary human peripheral blood mononuclear cells (PBMCs) after exposure to various concentrations of oxoadenine compounds.
Liposomes were prepared using the thin film method: phospholipids (DOPC and cholesterol at 40 and 10 mg/mL respectively) and agonist(s) (TLR7/8 agonist fixed at 2 mg/mL) were dissolved in chloroform at the desired concentration in a round bottom flask. The solvent was removed under vacuum by rotary evaporation at 45° C., and the resulting dried film was placed in a vacuum chamber overnight to remove any residual solvent. Rehydration buffer was added to the dried film and the suspension was sonicated to resuspend the phospholipids and form the unilamellar vesicles. Sonication continued until the particle size was<200 nm, at which time the formulations were sterile filtered through a 0.22 μm PVDF filter. Concentrations of agonist(s) in the formulations was determined by RP-HPLC using a five-point standard curve. Human whole blood was collected from normal healthy donors at the University of Montana (Missoula, MT) using an Institutional Review Board approved protocol. […] Culture supernatants were analyzed for IL-12p70 and IFNα levels using human IL-12p70 DuoSet (R) ELISA kit (R&D Systems, Minneapolis, MN) and human IFNα VeriKine ELISA kit (Pestka Biomedical Laboratories, Inc., Piscataway, NJ).

Test [2] relates to CT26 cells (murine colon cancer cell line). The test is described as follows: CT26 syngeneic tumor model, tumor growth. Type of test: in vivo. The following applies: CT26 s.c. in female Balb/c mice; 10 μg or 50 μg IV once a week for two weeks, 2% glycerol in sterile water (FIG. 6A, 6B). The protocol: Young, female Balb/c mice (approximately 8 weeks old) were implanted with 1×10^6 CT26 cells (murine colon cancer cell line, syngeneic in Balb/c mice) subcutaneously in the right flank. When tumors reached an average size of 75 mm^3 (11 days after CT26 cells were implanted), mice were randomized into treatment groups. Beginning on day 12, 10 μg or 50 μg of UM-1007 in an aqueous formulation (2% glycerol in sterile water) was injected IV once a week for two weeks.

Test [3] deals with monovalent (A/Victoria, H3N2) split flu antigen. It is filed as in vivo, Balb/c mice. As to conditions: i.m.

In the case of `CCCCCCCCCCCCCCCC(=O)OC[C@H](COCCOCCOCCOP(=O)(O)OCCN1CCC(Cn2c(O)nc3c(N)nc(O[C@@H](C)CCC)nc32)CC1)OC(=O)CCCCCCCCCCCCCCC` [UM-1007], the “IFNα induction potency compared with the non-PEGylated oxoadenine Compound B” value in test [1] (24 h, liposomes, alone or in combination with TLR4 agonist CRX-601 (FIG. 2A)) is “more potent IFNα inducer”. In test [1] (combined with TLR4 agonist CRX-601 (FIG. 2B)), the “IL-12p70 induction potency relative to Compound B” value amounted to 125 fold. Also, the “Tumor growth compared to treatment naive controls” value in test [2] was “slower tumor growth”. The “Anti-influenza IgG titers over antigen-only vaccinated animals” value in test [3] (Balb/c mice, liposomes, 10 μg UM-1007 alone) stood at 17 fold. Further, the “Dose dependence of anti-influenza IgG titer enhancement” value in test [3] (Balb/c mice, liposomes, 14dp2 (FIG. 3B)) is listed as “enhanced titers in a dose-dependent manner”. In addition, the “Anti-influenza IgG titers over the antigen-alone group” value in test [3] (Balb/c mice, liposomes, co-encapsulated with CRX-601 (TLR7/8:TLR4 ratio 10:1)) is recorded as more than 25 fold. The “Anti-influenza IgG titers after a single vaccination” value in test [3] (naïve Balb/c mice, liposomes alone or co-encapsulated with CRX-601, 14dp1 (FIG. 3A)) was “Strong anti-influenza IgG titers”.
